Laboratory results reported in US20260365628A1, “SUBSTITUTED 3,4-DIHYDROQUINOLINONE INHIBITORS OF TSHR” (Septerna, Inc., priority 2022, published 2026).

The compounds below were run against T1, hTSHR (Homo sapiens, UniProt P16473) (assay: hTSHR TR-FRET cAMP Assay (inhibition of M22-stimulated cAMP production)). Details: not given.
T1 construct: expressed in transfected cells
Format: cell-based
How it was run: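 Readout was a cAMP HTRF ratio of 655/620 nm after lysis, scaled between the EC80 M22 signal (0% inhibition) and no-agonist vehicle (100%). Frozen induced Expi293F-hTSHR cells saw test compounds (0.5% DMSO) for 15 min at 37 °C before 30 min of M22 stimulation at EC80.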

T1 sequence (P16473 21-764): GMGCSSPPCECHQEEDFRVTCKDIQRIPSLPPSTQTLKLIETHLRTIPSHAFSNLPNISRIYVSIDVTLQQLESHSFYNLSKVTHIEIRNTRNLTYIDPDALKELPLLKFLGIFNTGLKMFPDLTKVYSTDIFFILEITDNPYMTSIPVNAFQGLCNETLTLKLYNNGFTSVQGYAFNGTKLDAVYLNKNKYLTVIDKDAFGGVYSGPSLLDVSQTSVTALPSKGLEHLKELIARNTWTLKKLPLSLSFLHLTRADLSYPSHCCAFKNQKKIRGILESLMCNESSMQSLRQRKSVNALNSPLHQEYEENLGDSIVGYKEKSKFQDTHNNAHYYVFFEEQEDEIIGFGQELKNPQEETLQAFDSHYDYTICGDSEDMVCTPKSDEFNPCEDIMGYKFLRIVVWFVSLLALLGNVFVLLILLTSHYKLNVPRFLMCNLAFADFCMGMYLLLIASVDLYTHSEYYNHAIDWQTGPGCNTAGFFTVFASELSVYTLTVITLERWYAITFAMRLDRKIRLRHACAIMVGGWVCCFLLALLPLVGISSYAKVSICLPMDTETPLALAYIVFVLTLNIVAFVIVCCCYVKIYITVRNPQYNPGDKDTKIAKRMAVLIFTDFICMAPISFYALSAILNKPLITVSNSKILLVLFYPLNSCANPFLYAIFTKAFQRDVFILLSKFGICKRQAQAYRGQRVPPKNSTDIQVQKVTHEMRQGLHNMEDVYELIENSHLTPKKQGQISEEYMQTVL

Compound | IC50 [µM]
CC(C)(C)NC(=O)Oc1ccc2c(c1)CCC(=O)N2Cc1ccccc1 [Example 63] | > 1

Same assay, conditions: Expi293F Inducible cells stably expressing hTSHR; cAMP HTRF; stimulated with EC80 of anti-TSHR antibody M22; 15 min compound preincubation, 30 min at 37° C.; read-out: Activity (IC50 bins)

Compound | IC50 [µM]
C[C@H]1Oc2cc(NC(=O)NC(C)(C)C)ccc2N(Cc2ccccc2)C1=O [Example 41, (R)-1-(4-benzyl-2-methyl-3-oxo-3,4-dihydro-2H-benzo[b][1,4]oxazin-7-yl)-3-(tert-butyl)urea] | < 0.1
CC(C)(C)NC(=O)Nc1ccc2c(c1)ncc(=O)n2Cc1cccc2c1CCCO2 [Example 97, 1-(tert-butyl)-3-(1-(chroman-5-ylmethyl)-2-oxo-1,2-di-hydro-quinoxalin-6-yl)urea] | 0.1 to 1
CC[C@@H]1Oc2cc(NC(=O)NC(C)(C)C)ccc2N(Cc2ccccc2)C1=O [Example 278, (S)-1-(4-benzyl-2-ethyl-3-oxo-3,4-dihydro-2H-benzo[b][1,4]oxazin-7-yl)-3-(tert-butyl)urea] | > 1
CC(C)(C)NC(=O)Nc1ccc2c(c1)CCC(=O)N2Cc1cccc(Cl)c1 [Example 6, 1-(tert-butyl)-3-(1-(3-chlorobenzyl)-2-oxo-1,2,3,4-tetrahydroquinolin-6-yl)urea] | < 0.1
C[C@@H](c1cccc(OC(F)(F)F)c1)n1c(=O)cnc2cc(NC(=O)NC(C)(C)C)c(C#N)cc21 [Example 352, 3-tert-butyl-1-{7-cyano-2-oxo-1-[(1S)-1-[3-(trifluoromethoxy)phenyl]ethyl]quinoxalin-6-yl}urea] | 0.1 to 1
C[C@H]1Oc2cc(NC(=O)NC(C)(C)C)ccc2N(Cc2nccc(C(F)(F)F)n2)C1=O [Example 170, (R)-1-(tert-butyl)-3-(2-methyl-3-oxo-4-((4-(trifluoro-methyl)pyrimidin-2-yl)methyl)-3,4-dihydro-2H-benzo [b][1,4]oxazin-7-yl)urea] | 0.1 to 1
CC(c1cccc(CCC2COC2)c1)n1c(=O)cnc2cc(NC(=O)NC(C)(C)C)ccc21 (stereo not drawn) [Example 248, 1-(tert-butyl)-3-(1-(1-(3-(2-(oxetan-3-yl)ethyl)phenyl)ethyl)-2-oxo-1,2-dihydro-quinoxalin-6-yl)urea] | > 1
C[C@H]1Oc2cc(NC(=O)NC3(C)CCCCC3)ccc2N(Cc2cccc(C(F)(F)F)n2)C1=O [Example 229, (R)-1-(2-methyl-3-oxo-4-((6-(trifluoromethyl)pyridin-2-yl)methyl)-3,4-dihydro-2H-benzo[b][1,4]oxazin-7-yl)-3-(1-methylcyclohexyl) urea] | < 0.1
C[C@@H](c1cccc(OCC(F)(F)F)c1)n1c(=O)cnc2cc(NC(=O)NC(C)(C)C)ccc21 [Example 313, (S)-1-(tert-butyl)-3-(2-oxo-1-(1-(3-(2,2,2-trifluoroethoxy)phenyl)ethyl)-1,2-dihydroquinoxalin-6-yl)urea] | > 1
CC(c1cccc(OC(F)(F)F)c1F)n1c(=O)cnc2cc(NC(=O)NC(C)(C)C)ccc21 (stereo not drawn) [Example 312, 1-(tert-butyl)-3-(1-(1-(2-fluoro-3-(trifluoromethoxy)phenyl)ethyl)-2-oxo-1,2-dihydroquinoxalin-6-yl)urea] | 0.1 to 1
C[C@H]1Oc2nc(NC(=O)NC(C)(C)C)ccc2N(Cc2ccccc2)C1=O [Example 280, (R)-1-(1-benzyl-3-methyl-2-oxo-2,3-dihydro-1H-pyrido[2,3-b][1,4]oxazin-6-yl)-3-(tert-butyl)urea] | 0.1 to 1
CC(C)(C)NC(=O)Nc1ccc2c(c1)C[C@@H](CC#N)C(=O)N2Cc1ccccc1 [Example 276, (S)-1-(1-benzyl-3-(cyanomethyl)-2-oxo-1,2,3,4-tetrahydroquinolin-6-yl)-3-(tert-butyl)urea] | > 1
Cc1nc2cc(NC(=O)NC(C)(C)C)ccc2n([C@@H](C)c2cccc(Cl)c2)c1=O [Example 180, (S)-1-(tert-butyl)-3-(1-(1-(3-chlorophenyl)ethyl)-3-methyl-2-oxo-1,2-dihydroquinoxalin-6-yl)urea] | 0.1 to 1
CC1(C)CCCC1C(=O)Nc1ccc2c(c1)ncc(=O)n2Cc1ccccc1 (stereo not drawn) [Example 308, N-(1-benzyl-2-oxo-1,2-dihydroquinoxalin-6-yl)-2,2-dimethylcyclopentane-1-carboxamide] | 0.1 to 1
CC(C)(C)NC(=O)Nc1ccc2c(c1)CCC(=O)N2Cc1cccc(C(F)(F)F)c1 [Example 23, 1-(tert-butyl)-3-(2-oxo-1-(3-(trifluoromethyl)benzyl)-1,2,3,4-tetrahydroquinolin-6-yl)urea] | < 0.1
COc1cccc([C@H](C)N2C(=O)CCc3cc(NC(=O)NC(C)(C)C)ccc32)c1 [Example 297, (S)-1-(tert-butyl)-3-(1-(1-(3-methoxyphenyl)ethyl)-2-oxo-1,2,3,4-tetrahydroquinolin-6-yl)urea] | 0.1 to 1
C[C@@H](c1cccc(OCCC(F)(F)F)c1)n1c(=O)cnc2cc(NC(=O)NC(C)(C)C)ccc21 [Example 109, (S)-1-(tert-butyl)-3-(2-oxo-1-(1-(3-(3,3,3-trifluoropropoxy)phenyl)ethyl)-1,2-dihydroquinoxalin-6-yl)urea] | 0.1 to 1
C[C@@H](c1cccc(OC(F)(F)F)c1)n1c(=O)cnc2cc(NC(=O)NC3CC(F)(F)C3)ccc21 [Example 204, (S)-1-(3,3-difluorocyclobutyl)-3-(2-oxo-1-(1-(3-(trifluoromethoxy)phenyl)ethyl)-1,2-dihydroquinoxalin-6-yl)urea] | 0.1 to 1

Compound | IC50 [µM]
C[C@@H](c1cccc(Cl)c1)n1c(=O)cnc2cc(NC(=O)NC(C)(C)C)ccc21 [Example 131, (S)-1-(tert-butyl)-3-(1-(1-(3-chlorophenyl)ethyl)-2-oxo-1,2-dihydroquinoxalin-6-yl)urea] | < 0.1
Cc1nc2cc(NC(=O)NC(C)(C)C)ccc2n([C@@H](C)c2cccc(OC(F)(F)F)c2)c1=O [Example 182, (S)-1-(tert-butyl)-3-(3-methyl-2-oxo-1-(1-(3-(trifluoromethoxy)phenyl)ethyl)-1,2-dihydroquinoxalin-6-yl)urea] | 0.1 to 1
C[C@H](c1ccccc1)N1C(=O)[C@@H](C)Oc2cc(NC(=O)NC(C)(C)C)ccc21 [Example 331, 1-(tert-butyl)-3-((R)-2-methyl-3-oxo-4-((R)-1-phenylethyl)-3,4-dihydro-2H-benzo[b][1,4]oxazin-7-yl)urea] | > 1
Cc1nc2cc(NC(=O)NC(C)(C)C)ccc2n([C@@H](C)c2ccccc2)c1=O [Example 179, 3-tert-butyl-1-{3-methyl-2-oxo-1-[(1S)-1-phenylethyl]quinoxalin-6-yl}urea] | 0.1 to 1
CC(C)(C)NC(=O)Nc1ccc2c(c1)CCC(=O)N2C1CCc2ccccc21 (stereo not drawn) [Example 309, 1-(tert-butyl)-3-(1-(2,3-dihydro-1H-inden-1-yl)-2-oxo-1,2,3,4-tetrahydroquinolin-6-yl)urea] | 0.1 to 1
C[C@H](c1cccc(C(F)(F)F)c1)N1C(=O)CCc2nc(NC(=O)NC(C)(C)C)ccc21 [Example 283, (R)-1-(tert-butyl)-3-(6-oxo-5-(1-(3-(trifluoromethyl)phenyl)ethyl)-5,6,7,8-tetrahydro-1,5-naphthyridin-2-yl)urea] | > 1
Cc1cc2c(cc1NC(=O)NC(C)(C)C)ncc(=O)n2[C@@H](C)c1ccccc1 [Example 347, 3-tert-butyl-1-{7-methyl-2-oxo-1-[(1S)-1-phenylethyl]quinoxalin-6-yl}urea] | 0.1 to 1
C[C@H]1Oc2cc(NC(=O)NC(C)(C)C)ccc2N(Cc2cc(Cl)ccc2C#N)C1=O [Example 85, (R)-1-(tert-butyl)-3-(4-(5-chloro-2-cyanobenzyl)-2-methyl-3-oxo-3,4-dihydro-2H-benzo[b][1,4]oxazin-7-yl)urea] | 0.1 to 1
CC1Oc2nc(NC(=O)NC(C)(C)C)c(C(F)(F)F)cc2N(Cc2ccccc2)C1=O (stereo in doubt) [Example 378, (R)-1-(1-benzyl-3-methyl-2-oxo-7-(trifluoromethyl)-2,3-dihydro-1H-pyrido[2,3-b][1,4]oxazin-6-yl)-3-(tert-butyl)urea] | 0.1 to 1
C[C@H]1Oc2cc(NC(=O)NC(C)(C)C)ccc2N([C@@H](C)c2cccc(OC(F)(F)F)c2)C1=O [Example 184, 1-(tert-butyl)-3-((R)-2-methyl-3-oxo-4-((S)-1-(3-(trifluoromethoxy)phenyl)ethyl)-3,4-dihydro-2H-benzo[b][1,4]oxazin-7-yl)urea] | 0.1 to 1
C[C@@H](c1cccc(OC(F)(F)F)c1)n1c(=O)cnc2cc(NC(=O)NC3(C)COC3)ccc21 [Example 212] | > 1
CC(C)(C)NC(=O)Nc1ccc2c(c1)CC(=O)N2Cc1ccccc1 [Example 31, 1-(1-benzyl-2-oxo-3H-indol-5-yl)-3-tert-butylurea] | > 1
C[C@@H](c1ccccc1)N1C(=O)CCc2cc(NC(=O)NC(C)(C)C)ccc21 [Example 13, (S)-1-(tert-butyl)-3-(2-oxo-1-(1-phenylethyl)-1,2,3,4-tetrahydroquinolin-6-yl)urea] | < 0.1
CC(C)(C)NC(=O)Nc1ccc2c(c1)CCC(=O)N2Cc1cc(C(F)(F)F)ccc1F [Example 39, 1-(tert-butyl)-3-(1-(2-fluoro-5-(trifluoromethyl)benzyl)-2-oxo-1,2,3,4-tetrahydroquinolin-6-yl)urea] | < 0.1
CC(C)(NC(=O)Nc1ccc2c(c1)ncc(=O)n2Cc1ccccc1)C(F)(F)F [Example 198, 1-(1-benzyl-2-oxo-1,2-dihydroquinoxalin-6-yl)-3-(1,1,1-trifluoro-2-methylpropan-2-yl)urea] | 0.1 to 1
C[C@H]1Oc2c(cc(C(F)(F)F)c(NC(=O)NC(C)(C)C)c2F)N(Cc2ccccc2)C1=O [Example 354, (R)-1-(4-benzyl-8-fluoro-2-methyl-3-oxo-6-(trifluoromethyl)-3,4-dihydro-2H-benzo[b][1,4]oxazin-7-yl)-3-(tert-butyl)urea] | 0.1 to 1
C[C@@H](c1cccc(OC(F)(F)F)n1)n1c(=O)cnc2cc(NC(=O)NC3(C)CCC3)ccc21 [Example 106, (S)-1-(1-methylcyclobutyl)-3-(2-oxo-1-(1-(6-(trifluoromethoxy)pyri-din-2-yl)ethyl)-1,2-dihydroquinoxalin-6-yl)urea] | 0.1 to 1
